Source: publication PMC8286840, “Identifying SARS-CoV-2 antiviral compounds by screening for small molecule inhibitors of Nsp3 papain-like protease” (Biochemical Journal, 2021)
Structures can show the parent of a compound that is named as a salt. Where two headings read alike, the source gives them in different places.

Columns and labels:
[1] = target: T1, SARS-CoV-2 PLpro (nsp3 1564–1878) (Severe acute respiratory syndrome coronavirus 2, UniProt P0DTD1); assay: biochemical; design: FRET-quenched peptide (Pro3) cleavage by PLpro, 10 min pre-incubation, slope over 20 min, normalised to no-compound control; conditions: read-out: % of control remaining
[2] = target: T1, SARS-CoV-2 PLpro (nsp3 1564–1878); assay: biochemical; design: FRET-quenched peptide (Pro3) cleavage by PLpro, 10 min pre-incubation, slope over 20 min, normalised to no-compound control; conditions: read-out: % of control remaining; remark: listed apart in the source

COc1ccccc1N1CCN(CC(O)COc2cccc3ccccc23)CC1 (stereo not drawn) [Naftopidil]
remaining activity at 3.75 µM ([1]; Well no.=7523, high concentration screen): 97.2%
remaining activity at 1.25 µM ([2]; Well no.=7523, low concentration screen): 101%

Oc1ccc2c3c1O[C@H]1[C@@H](O)CC[C@@]4(O)[C@@H](C2)N(CC2CCC2)CC[C@]314 [Nalbuphine]
remaining activity at 3.75 µM [1]: 97.3%
remaining activity at 1.25 µM [2]: 95.6%

CCn1cc(C(=O)O)c(=O)c2ccc(C)nc21 [Nalidixic acid sodium]
remaining activity at 3.75 µM ([1]; Well no.=951, high concentration screen): 102%
remaining activity at 1.25 µM ([2]; Well no.=951, low concentration screen): 101%

CCn1cc(C(=O)O)c(=O)c2ccc(C)nc21 [Nalidixic acid]
remaining activity at 3.75 µM ([1]; Well no.=3256, high concentration screen): 99.3%
remaining activity at 1.25 µM ([2]; Well no.=3256, low concentration screen): 99.8%

C=CCN1CC[C@]23c4c5ccc(O)c4O[C@H]2/C(=N/N=C2\CC[C@@]4(O)[C@H]6Cc7ccc(O)c8c7[C@@]4(CCN6CC=C)[C@H]2O8)CC[C@@]3(O)[C@H]1C5 [Naloxonazine dihydrochloride]
remaining activity at 3.75 µM ([1]; Well no.=894, high concentration screen): 107%
remaining activity at 1.25 µM ([2]; Well no.=894, low concentration screen): 105%

C=CCN1CC[C@]23c4c5ccc(O)c4O[C@H]2/C(=N/N=C2\CC[C@@]4(O)[C@H]6Cc7ccc(O)c8c7[C@@]4(CCN6CC=C)[C@H]2O8)CC[C@@]3(O)[C@H]1C5 [Naloxonazine]
remaining activity at 3.75 µM ([1]; Well no.=2062, high concentration screen): 105%
remaining activity at 1.25 µM ([2]; Well no.=2062, low concentration screen): 101%

C=CCN1CC[C@]23c4c5ccc(O)c4O[C@H]2/C(=N/NC(=O)c2ccccc2)CC[C@@]3(O)[C@H]1C5 [Naloxone benzoylhydrazone]
remaining activity at 3.75 µM ([1]; Well no.=798, high concentration screen): 99.5%
remaining activity at 1.25 µM ([2]; Well no.=798, low concentration screen): 93.2%

C=CCN1CC[C@]23c4c5ccc(O)c4O[C@H]2C(=O)CC[C@@]3(O)[C@H]1C5 [Naloxone hydrochloride]
remaining activity at 3.75 µM ([1]; Well no.=907, high concentration screen): 105%
remaining activity at 1.25 µM ([2]; Well no.=907, low concentration screen): 103%

C=CCN1CC[C@]23c4c5ccc(O)c4O[C@H]2C(=O)CC[C@@]3(O)[C@H]1C5 [Naloxone]
remaining activity at 3.75 µM ([1]; Well no.=2060, high concentration screen): 103%
remaining activity at 1.25 µM ([2]; Well no.=2060, low concentration screen): 104%

O=C1CC[C@@]2(O)[C@H]3Cc4ccc(O)c5c4[C@@]2(CCN3CC2CC2)[C@H]1O5 [Naltrexone (Hydrochloride)]
remaining activity at 3.75 µM ([1]; Well no.=8147, high concentration screen): 95.1%
remaining activity at 1.25 µM ([2]; Well no.=8147, low concentration screen): 98.3%

O=C1CC[C@@]2(O)[C@H]3Cc4ccc(O)c5c4[C@@]2(CCN3CC2CC2)[C@H]1O5 [Naltrexone hydrochloride]
remaining activity at 3.75 µM ([1]; Well no.=997, high concentration screen): 100%
remaining activity at 1.25 µM ([2]; Well no.=997, low concentration screen): 97.6%

O=C1CC[C@@]2(O)[C@H]3Cc4ccc(O)c5c4[C@@]2(CCN3CC2CC2)[C@H]1O5 [Naltrexone.HCl]
remaining activity at 3.75 µM ([1]; Well no.=1883, high concentration screen): 92.8%
remaining activity at 1.25 µM ([2]; Well no.=1883, low concentration screen): 88.3%

Oc1ccc2c3c1O[C@H]1c4oc5ccccc5c4C[C@@]4(O)[C@@H](C2)N(CC2CC2)CC[C@]314 [Naltriben methanesulfonate hydrate]
remaining activity at 3.75 µM ([1]; Well no.=1698, high concentration screen): 95.9%
remaining activity at 1.25 µM ([2]; Well no.=1698, low concentration screen): 95.8%

Oc1ccc2c3c1O[C@H]1c4oc5ccccc5c4C[C@@]4(O)[C@@H](C2)N(CC2CC2)CC[C@]314 [Naltriben methanesulfonate]
remaining activity at 3.75 µM ([1]; Well no.=1036, high concentration screen): 97.4%
remaining activity at 1.25 µM ([2]; Well no.=1036, low concentration screen): 92.8%

Oc1ccc2c3c1O[C@H]1c4[nH]c5ccccc5c4C[C@@]4(O)[C@@H](C2)N(CC2CC2)CC[C@]314 [Naltrindole (hydrochloride)]
remaining activity at 3.75 µM ([1]; Well no.=7227, high concentration screen): 97.5%
remaining activity at 1.25 µM ([2]; Well no.=7227, low concentration screen): 103%

Oc1ccc2c3c1O[C@H]1c4[nH]c5ccccc5c4C[C@@]4(O)[C@@H](C2)N(CC2CC2)CC[C@]314 [Naltrindole hydrochloride]
remaining activity at 3.75 µM ([1]; Well no.=1053, high concentration screen): 93.2%
remaining activity at 1.25 µM ([2]; Well no.=1053, low concentration screen): 92.8%

Oc1ccc2c3c1O[C@H]1c4[nH]c5ccccc5c4C[C@@]4(O)[C@@H](C2)N(CC2CC2)CC[C@]314 [Naltrindole.HCl]
remaining activity at 3.75 µM ([1]; Well no.=1644, high concentration screen): 104%
remaining activity at 1.25 µM ([2]; Well no.=1644, low concentration screen): 106%

CNC(=O)[C@H]1O[C@@H](n2cnc3c(NCc4cccc(I)c4)nc(Cl)nc32)[C@H](O)[C@@H]1O [Namodenoson]
remaining activity at 3.75 µM ([1]; Well no.=8451, high concentration screen): 104%
remaining activity at 1.25 µM ([2]; Well no.=8451, low concentration screen): 104%

CO[C@H]1CC[C@@H](O[C@H]2C[C@H]([C@]3(C)CC[C@]4(C[C@H](O)[C@@H](C)[C@@H]([C@@H](C)/C=C(\C)C(=O)[C@H](C)C[C@H](C)C(=O)O)O4)O3)O[C@]3(O[C@@H]([C@H]4O[C@@](O)(CO)[C@H](C)C[C@@H]4C)C[C@@H]3C)[C@@H]2C)O[C@@H]1C [Nanchangmycin]
remaining activity at 3.75 µM ([1]; Well no.=4861, high concentration screen): 104%
remaining activity at 1.25 µM ([2]; Well no.=4861, low concentration screen): 101%

c1ccc2c(CC3=NCCN3)cccc2c1 [Naphazoline (hydrochloride)]
remaining activity at 3.75 µM ([1]; Well no.=7529, high concentration screen): 97.5%
remaining activity at 1.25 µM ([2]; Well no.=7529, low concentration screen): 96.6%

c1ccc2c(CC3=NCCN3)cccc2c1 [Naphazoline]
remaining activity at 3.75 µM ([1]; Well no.=2007, high concentration screen): 103%
remaining activity at 1.25 µM ([2]; Well no.=2007, low concentration screen): 105%

COc1ccc2cc([C@H](C)C(=O)O)ccc2c1 [Naproxen]
remaining activity at 3.75 µM ([1]; Well no.=1869, high concentration screen): 87.1%
remaining activity at 1.25 µM ([2]; Well no.=1869, low concentration screen): 90.4%

CC[C@@H](C(=O)O)[C@@H]1O[C@@H]([C@@H](C)[C@H](O)[C@H](C)C(=O)[C@H](CC)[C@H]2O[C@]3(C=C[C@@H](O)[C@]4(CC[C@@](C)([C@H]5CC[C@](O)(CC)[C@H](C)O5)O4)O3)[C@H](C)C[C@@H]2C)[C@@H](C)C[C@@H]1C [Narasin]
remaining activity at 3.75 µM ([1]; Well no.=3258, high concentration screen): 96%
remaining activity at 1.25 µM ([2]; Well no.=3258, low concentration screen): 94.4%

CNS(=O)(=O)CCc1ccc2[nH]cc(C3CCN(C)CC3)c2c1 [Naratriptan (hydrochloride)]
remaining activity at 3.75 µM ([1]; Well no.=7385, high concentration screen): 100%
remaining activity at 1.25 µM ([2]; Well no.=7385, low concentration screen): 100%

CNS(=O)(=O)CCc1ccc2[nH]cc(C3CCN(C)CC3)c2c1 [Naratriptan HCl]
remaining activity at 3.75 µM ([1]; Well no.=4909, high concentration screen): 99.8%
remaining activity at 1.25 µM ([2]; Well no.=4909, low concentration screen): 97.9%

O=C1C[C@@H](c2ccc(O)cc2)Oc2cc(O)cc(O)c21 [Naringenin]
remaining activity at 3.75 µM ([1]; Well no.=3326, high concentration screen): 98.3%
remaining activity at 1.25 µM ([2]; Well no.=3326, low concentration screen): 96.4%

C[C@@H]1O[C@@H](O[C@H]2[C@H](Oc3cc(O)c(C(=O)CCc4ccc(O)cc4)c(O)c3)O[C@H](CO)[C@@H](O)[C@@H]2O)[C@H](O)[C@H](O)[C@H]1O [Naringin Dihydrochalcone]
remaining activity at 3.75 µM ([1]; Well no.=8148, high concentration screen): 97.1%
remaining activity at 1.25 µM ([2]; Well no.=8148, low concentration screen): 106%

C[C@@H]1O[C@@H](O[C@H]2[C@H](Oc3cc(O)c4c(c3)O[C@H](c3ccc(O)cc3)CC4=O)O[C@H](CO)[C@@H](O)[C@@H]2O)[C@H](O)[C@H](O)[C@H]1O [Naringin]
remaining activity at 3.75 µM ([1]; Well no.=3665, high concentration screen): 99.9%
remaining activity at 3.75 µM ([1]; Well no.=8098, high concentration screen): 97.5%
remaining activity at 1.25 µM ([2]; Well no.=3665, low concentration screen): 98.4%
remaining activity at 1.25 µM ([2]; Well no.=8098, low concentration screen): 97.4%

C[C@@H]1O[C@@H](OC[C@H]2O[C@@H](Oc3cc(O)c4c(c3)O[C@H](c3ccc(O)cc3)CC4=O)[C@H](O)[C@@H](O)[C@@H]2O)[C@H](O)[C@H](O)[C@H]1O [Narirutin]
remaining activity at 3.75 µM ([1]; Well no.=3347, high concentration screen): 93.8%
remaining activity at 1.25 µM ([2]; Well no.=3347, low concentration screen): 91.9%

CC(C)[C@H]1CC[C@H](C(=O)N[C@H](Cc2ccccc2)C(=O)O)CC1 [Nateglinide]
remaining activity at 3.75 µM ([1]; Well no.=1546, high concentration screen): 103%
remaining activity at 3.75 µM ([1]; Well no.=7504, high concentration screen): 102%
remaining activity at 1.25 µM ([2]; Well no.=1546, low concentration screen): 103%
remaining activity at 1.25 µM ([2]; Well no.=7504, low concentration screen): 102%

CC[C@@H](Nc1c(Nc2cccc(C(=O)N(C)C)c2O)c(=O)c1=O)c1ccc(C)o1 [Navarixin]
remaining activity at 3.75 µM ([1]; Well no.=8175, high concentration screen): 101%
remaining activity at 1.25 µM ([2]; Well no.=8175, low concentration screen): 105%
